The text below walks through data of patent US20250026721A1, “COMPOUNDS AND METHODS FOR MODULATING RAS-PI3K” (Vividion Therapeutics, Inc., priority 2023, published 2025).

For one assay, the target named is T1, PIK3CA (Homo sapiens, UniProt P42336).
T1 construct: endogenous in cells; host or cells: Jurkat cell lysate
Put plainly: In vitro ELISA target engagement assay for PIK3CA in Jurkat cellular lysate (competition with PIK3CA Biotin Probe). The settings on record: 1 hour at rt, then 500 nM PIK3CA Biotin Probe, read-out: Elisa Target Engagement Assay (TE50). It counts as binding. The gist of the method:
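Competition format in Jurkat lysate: compound (serial dilutions, top 200 μM) for 1 h at rt, then 500 nM final biotinylated PIK3CA probe for 1 h at rt. Sandwich ELISA with capture antibody and Neutravidin-HRP luminescence read-out measured probe-labelled PIK3CA, giving TE50.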
A general note: An ELISA detects its analyte on a solid surface through an enzyme-linked reagent.

Assay [1] deals with pAKT(S473) in FaDu cell line. Nature of the assay: In vitro Phospho-AKT(S473) HTRF analysis in FaDu cells. It counts as cell-based. Conditions: Homo sapiens, 0.5 h; for IC50: FaDu cells, 30 minutes at 37° C.; for Emax: FaDu, read-out: FaDu pAKT Imax % control. The method, then:
Example 5. In Vitro Phosgho-AKT(S473) Analysis
Functional activity of the compounds to inhibit pAKT were assessed in FaDu or H358 cell lines as indicated below.
• Complete Media • FBS, Corning catalog #35-010-CV • Anti-Anti, Gibco catalog #15240-062 • 96 well plate, Corning catalog #3610 • TrypLE, Gibco catalog #12604013 • Phospho-AKT(S473) HTRF kit, Cisbio catalog #64AKSPET
Cells were detached from the tissue culture flask with TrypLE. The cells were pelleted at 500×g for 5 min, TrypLe was removed and then resuspended in the necessary volume of media+1% FBS to give the appropriate cell density (17,500 cells/mL for FaDu; 20,000 cells/mL for H358). 100 μL of cell suspension/well was dispensed into the 96-well plate while keeping the outer wells of the plate free of cells and filled with PBS to prevent evaporation of interior wells. The plate was incubated at 37° C. and allowed to adhere overnight. The cells were treated with a dose response of compound and incubated at 37° C. for 30 minutes. The cells were then processed and pAKT(S473) levels were assessed following the specifications of the Cisbio HTRF kit.
A general note: In TR-FRET formats the signal depends on donor and acceptor labels being close together.

The next assay deals with T2, PIK3CA_C242 (Homo sapiens, UniProt P42336).
T2 construct: endogenous in cells; host or cells: Jurkat cell lysate
Nature of the assay: Proteomic TE50 (IA-DTB / TMT mass spectrometry) in Jurkat cell lysate. It counts as binding. Conditions: 1 hour at rt, 7-point dose response. The gist of the method:
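Cysteine engagement was read by targeted TMT MS3 of the IA-DTB-labelled, streptavidin-enriched C242 tryptic peptide. Beforehand, Jurkat lysate was exposed to a 7-point 1:5 compound series for 1 h at rt, then to 200 μM IA-DTB for 1 h. Reporter S/N curves gave TE50.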

The structures appear in SMILES notation.

T2 sequence (P42336 whole entry): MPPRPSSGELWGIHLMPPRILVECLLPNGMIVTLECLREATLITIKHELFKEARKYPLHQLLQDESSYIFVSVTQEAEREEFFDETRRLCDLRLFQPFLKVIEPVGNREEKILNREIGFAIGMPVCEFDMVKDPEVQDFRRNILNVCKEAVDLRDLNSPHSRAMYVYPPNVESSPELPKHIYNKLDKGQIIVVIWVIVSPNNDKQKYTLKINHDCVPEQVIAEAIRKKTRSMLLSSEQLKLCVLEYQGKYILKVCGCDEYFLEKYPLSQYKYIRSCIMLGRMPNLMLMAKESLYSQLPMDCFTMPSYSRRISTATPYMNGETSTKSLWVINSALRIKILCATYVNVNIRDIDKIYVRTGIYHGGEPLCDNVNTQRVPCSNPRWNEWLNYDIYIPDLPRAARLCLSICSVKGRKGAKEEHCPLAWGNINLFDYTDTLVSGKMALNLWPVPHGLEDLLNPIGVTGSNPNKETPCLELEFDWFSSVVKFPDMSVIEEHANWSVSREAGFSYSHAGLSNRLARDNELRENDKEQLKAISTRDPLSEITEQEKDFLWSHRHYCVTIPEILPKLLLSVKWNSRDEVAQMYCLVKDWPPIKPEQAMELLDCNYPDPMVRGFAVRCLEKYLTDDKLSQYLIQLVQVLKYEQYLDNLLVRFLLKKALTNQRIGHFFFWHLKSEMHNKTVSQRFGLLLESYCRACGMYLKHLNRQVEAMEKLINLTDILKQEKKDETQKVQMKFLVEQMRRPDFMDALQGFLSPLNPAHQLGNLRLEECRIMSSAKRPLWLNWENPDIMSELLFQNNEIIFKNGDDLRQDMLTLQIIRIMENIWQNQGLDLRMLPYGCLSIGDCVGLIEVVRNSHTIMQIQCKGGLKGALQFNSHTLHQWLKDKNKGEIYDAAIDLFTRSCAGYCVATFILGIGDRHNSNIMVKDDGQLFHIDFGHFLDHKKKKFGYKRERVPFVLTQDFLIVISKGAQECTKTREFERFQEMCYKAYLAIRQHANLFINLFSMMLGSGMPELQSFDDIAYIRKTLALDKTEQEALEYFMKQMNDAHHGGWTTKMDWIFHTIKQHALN
T2 sequence (P27986 whole entry partner): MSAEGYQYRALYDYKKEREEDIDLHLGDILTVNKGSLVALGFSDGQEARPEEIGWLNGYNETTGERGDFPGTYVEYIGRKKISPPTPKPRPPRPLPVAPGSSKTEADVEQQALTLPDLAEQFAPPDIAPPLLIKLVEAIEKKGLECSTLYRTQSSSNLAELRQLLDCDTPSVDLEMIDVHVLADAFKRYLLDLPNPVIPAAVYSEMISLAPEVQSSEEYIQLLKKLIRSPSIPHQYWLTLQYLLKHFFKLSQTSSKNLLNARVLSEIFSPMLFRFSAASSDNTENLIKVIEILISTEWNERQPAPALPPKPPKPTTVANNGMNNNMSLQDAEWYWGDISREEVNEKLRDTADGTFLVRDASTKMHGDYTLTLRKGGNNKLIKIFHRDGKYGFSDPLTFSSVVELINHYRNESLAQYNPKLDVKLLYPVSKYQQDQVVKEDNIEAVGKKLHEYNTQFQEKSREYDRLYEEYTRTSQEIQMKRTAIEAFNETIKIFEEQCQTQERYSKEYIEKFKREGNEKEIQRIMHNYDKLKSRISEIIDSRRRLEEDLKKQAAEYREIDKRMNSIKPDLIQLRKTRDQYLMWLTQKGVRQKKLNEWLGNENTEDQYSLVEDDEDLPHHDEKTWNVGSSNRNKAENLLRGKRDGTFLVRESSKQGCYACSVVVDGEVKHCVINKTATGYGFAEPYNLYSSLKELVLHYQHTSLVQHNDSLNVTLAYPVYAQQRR
T1 sequence (P42336 whole entry): as the sequence (P42336 whole entry) above
T1 sequence (P27986 whole entry partner): as the sequence (P27986 whole entry partner) above

Regarding `COC[C@@H](/C=C\S(C)(=O)=O)NC(=O)C1(F)CCN(S(=O)(=O)c2ccc(Br)cc2-c2ccccc2Cl)CC1` [Compound 246, (R,Z)-1-((5-bromo-2′-chloro-[1,1′-biphenyl]-2-yl)sulfonyl)-4-fluoro-N-(1-methoxy-4-(methylsulfonyl)but-3-en-2-yl)piperidine-4-carboxamide], the IC50 at PIK3CA came out at 0.042 µM; in assay [1], 0.163 µM.
The like results for `C[C@H](/C=C\S(C)(=O)=O)NC(=O)[C@@]1(F)CCCN(C(=O)c2ccc(C(F)(F)F)cc2-c2ccccc2Cl)CC1` [Compound 242, (R)-1-(2′-chloro-5-(trifluoromethyl)-[1,1′-biphenyl]-2-carbonyl)-4-fluoro-N-((R,Z)-4-(methylsulfonyl)but-3-en-2-yl)azepane-4-carboxamide] were, in that order, 0.072 µM and 0.138 µM.
The like results for `C[C@H](/C=C\S(=O)(=O)[C@H]1CCN(C)C1)NC(=O)C1(F)CCN(S(=O)(=O)c2ccc(Br)cc2-c2ccccc2Cl)CC1` (single isomer, unassigned) [Compound 238, 1-((5-bromo-2′-chloro-[1,1′-biphenyl]-2-yl)sulfonyl)-4-fluoro-N-((R,Z)-4-(((*S)-1-methylpyrrolidin-3-yl)sulfonyl)but-3-en-2-yl)piperidine-4-carboxamide] were, in that order, 0.025 µM and 0.0292 µM.
For `O=C([C@H]1CN(CC(F)(F)F)C[C@H]1c1ccccc1Cl)N1CCC[C@](F)(C(=O)N[C@@H]2C=CS(=O)(=O)C2)CC1` [Compound 176, (R)-1-((3R,4R)-4-(2-chlorophenyl)-1-(2,2,2-trifluoroethyl)pyrrolidine-3-carbonyl)-N-((R)-1,1-dioxido-2,3-dihydrothiophen-3-yl)-4-fluoroazepane-4-carboxamide], the IC50 on PIK3CA amounted to 0.75 µM. Further, in assay [1], the IC50 is 0.679 µM and the Emax was found to be 83.3%.
Take `C[C@H](/C=C\S(C)(=O)=O)NC(=O)[C@@]1(F)CCCN(C(=O)c2ccc(Br)cc2-c2ccccc2Cl)CC1` [Compound 241, (R)-1-(5-bromo-2′-chloro-[1,1′-biphenyl]-2-carbonyl)-4-fluoro-N-((R,Z)-4-(methylsulfonyl)but-3-en-2-yl)azepane-4-carboxamide]: the IC50 on PIK3CA was found to be 0.062 µM. In assay [1], the IC50 was found to be 0.281 µM and the Emax was determined as 95.3%.
As to `C[C@@H](/C=C\S(C)(=O)=O)NC(=O)C1(F)CCN(S(=O)(=O)c2ccc(Br)cc2-c2ccccc2Cl)CC1` [Compound 62, (S,Z)-1-((5-bromo-2′-chloro-[1,1′-biphenyl]-2-yl)sulfonyl)-4-fluoro-N-(4-(methylsulfonyl)but-3-en-2-yl)piperidine-4-carboxamide], in assay [1], the IC50 is 0.0275 µM and the Emax amounted to 85.2%.
Regarding `O=C([C@H]1CN(CC(F)(F)F)C[C@H]1c1ccccc1Cl)N1CCC(F)(C(=O)N[C@@H]2C=CS(=O)(=O)C2)CC1` [Compound 164, 1-((3R,4R)-4-(2-chlorophenyl)-1-(2,2,2-trifluoroethyl)pyrrolidine-3-carbonyl)-N—((R)-1,1-dioxido-2,3-dihydrothiophen-3-yl)-4-fluoropiperidine-4-carboxamide], the IC50 is 0.37 µM on PIK3CA and 0.834 µM in assay [1]. Further, the Emax in assay [1] amounted to 103%.
The like results for `COCc1ccc(S(=O)(=O)N2CC[C@@](F)(C(=O)N[C@H](C)/C=C\S(C)(=O)=O)C[C@H]2C)c(-c2ccccc2Cl)c1` [Compound 149, (2R,4S)-1-((2′-chloro-5-(methoxymethyl)-[1,1′-biphenyl]-2-yl)sulfonyl)-4-fluoro-2-methyl-N-((R,Z)-4-(methylsulfonyl)but-3-en-2-yl)piperidine-4-carboxamide] were, in that order, 0.161 µM, 0.248 µM and 109%.
With `C[C@H](/C=C\S(C)(=O)=O)NC(=O)[C@@]1(F)CCCN(C(=O)[C@H]2CN(CC(F)(F)F)C[C@H]2c2cccc(F)c2Cl)CC1` (single isomer, unassigned) [Compound 168, (R)-1-((3*R,4*R)-4-(2-chloro-3-fluorophenyl)-1-(2,2,2-trifluoroethyl)pyrrolidine-3-carbonyl)-4-fluoro-N-((R,Z)-4-(methylsulfonyl)but-3-en-2-yl)azepane-4-carboxamide], the IC50 on PIK3CA was 0.215 µM; in assay [1], 0.136 µM. For the same compound, in assay [1], the Emax was determined as 90.6%.
The matching figures for `C[C@H](/C=C/C(=O)N1CC(F)(F)C1)NC(=O)[C@]1(F)CCN(S(=O)(=O)c2ccc(Br)cc2-c2cccc(Cl)c2)[C@H](C)C1` [Compound 155, (2R,4S)-1-((5-bromo-3′-chloro-[1,1′-biphenyl]-2-yl)sulfonyl)-N-((R,E)-5-(3,3-difluoroazetidin-1-yl)-5-oxopent-3-en-2-yl)-4-fluoro-2-methylpiperidine-4-carboxamide]: 0.3 µM, 0.305 µM and 106%.
The like results for `CC[C@H](/C=C\S(C)(=O)=O)NC(=O)[C@@]1(F)CCCN(C(=O)[C@H]2CN(CC(F)(F)F)C[C@H]2c2ccccc2Cl)CC1` [Compound 198, (R)-1-((3R,4R)-4-(2-chlorophenyl)-1-(2,2,2-trifluoroethyl)pyrrolidine-3-carbonyl)-4-fluoro-N-((R,Z)-1-(methylsulfonyl)pent-1-en-3-yl)azepane-4-carboxamide] were, in that order, 0.54 µM, 0.472 µM and 95.2%.
`Cc1cccc([C@@H]2CN(CC(F)(F)F)C[C@@H]2C(=O)N2CCC[C@](F)(C(=O)N[C@H](C)/C=C\S(C)(=O)=O)CC2)c1Cl` (single isomer, unassigned) [Compound 172, (R)-1-((3*R,4*R)-4-(2-chloro-3-methylphenyl)-1-(2,2,2-trifluoroethyl)pyrrolidine-3-carbonyl)-4-fluoro-N-((R,Z)-4-(methylsulfonyl)but-3-en-2-yl)azepane-4-carboxamide]: the figures for the IC50 (at PIK3CA; in assay [1]) were 0.58 µM and 0.505 µM, respectively. In addition, the Emax in assay [1] stood at 97.9%.
The like results for `C[C@H](/C=C\S(C)(=O)=O)NC(=O)[C@@]1(F)CCCN(C(=O)[C@H]2CN(C3CC3)C[C@H]2c2ccccc2Cl)CC1` [Compound 303, (R)-1-((3R,4R)-4-(2-chlorophenyl)-1-cyclopropylpyrrolidine-3-carbonyl)-4-fluoro-N-((R,Z)-4-(methylsulfonyl)but-3-en-2-yl)azepane-4-carboxamide] were, in that order, 0.557 µM, 0.243 µM and 102%.
The like results for `[2H]C([2H])([2H])Oc1ccc(S(=O)(=O)N2CC[C@@](F)(C(=O)N[C@H](C)/C=C/C(=O)N3CC(F)(F)C3)C[C@H]2C)c(-c2ccccc2Cl)c1` [Compound 300, (2R,4S)-1-((2′-chloro-5-(methoxy-d3)-[1,1′-biphenyl]-2-yl)sulfonyl)-N-((R,E)-5-(3,3-difluoroazetidin-1-yl)-5-oxopent-3-en-2-yl)-4-fluoro-2-methylpiperidine-4-carboxamide] were, in that order, 0.31 µM, 0.418 µM and 94.2%.
On to `O=C(/C=C\CNC(=O)C1(F)CCN(S(=O)(=O)c2ccc(Br)cc2-c2ccccc2Cl)CC1)N1CC(F)(F)C1` [Compound 285, (Z)-1-((5-bromo-2′-chloro-[1,1′-biphenyl]-2-yl)sulfonyl)-N-(4-(3,3-difluoroazetidin-1-yl)-4-oxobut-2-en-1-yl)-4-fluoropiperidine-4-carboxamide], for which the results for the IC50 (at PIK3CA; in assay [1]) were 0.0541 µM and 0.124 µM, respectively.
`C[C@H](/C=C\S(C)(=O)=O)NC(=O)C1(F)CCN(S(=O)(=O)c2ncc(Br)cc2-c2ccccc2Cl)CC1` [Compound 218, (R,Z)-1-((5-bromo-3-(2-chlorophenyl)pyridin-2-yl)sulfonyl)-4-fluoro-N-(4-(methylsulfonyl)but-3-en-2-yl)piperidine-4-carboxamide]: the IC50 on PIK3CA stood at 0.56 µM; against PIK3CA_C242, 0.44 µM.
On to `C[C@H](/C=C\S(C)(=O)=O)NC(=O)C1(F)CCN(S(=O)(=O)c2ccc(N3CCCC3)cc2-c2ccccc2Cl)CC1` [Compound 119, (R,Z)-1-((2′-chloro-5-(pyrrolidin-1-yl)-[1,1′-biphenyl]-2-yl)sulfonyl)-4-fluoro-N-(4-(methylsulfonyl)but-3-en-2-yl)piperidine-4-carboxamide], for which the IC50 was found to be 0.67 µM at PIK3CA and 0.46 µM on PIK3CA_C242.
Take `C[C@H](/C=C\S(C)(=O)=O)NC(=O)C1(F)CCN(S(=O)(=O)c2ccc(N(C)C)cc2-c2ccccc2)CC1` [Compound 91, (R,Z)-1-((5-(dimethylamino)-[1,1′-biphenyl]-2-yl)sulfonyl)-4-fluoro-N-(4-(methylsulfonyl)but-3-en-2-yl)piperidine-4-carboxamide]: the IC50 on PIK3CA worked out at 0.28 µM; against PIK3CA_C242, 0.43 µM.
